# Test results as given in PubChem BioAssay AID1963836 (Molecular Pharmacology Branch, DTP, NCI, 2024).
# Several values for one entry are separate records, joined by “and”; a condition that tells them apart may be missing. Equal entries are not always repeated.
# Tested on: 857933-349-R-J2-PDC complex spheroid viability
# Test: Anticancer human tumor 857933-349-R-J2-PDC patient-derived colon adenocarcinoma cell line growth inhibition [POLQ]
# Details: for viability, T/C: stronger effect = lower value; for IC50: curve of compound
# Protocol: Multicellular complex tumor spheroid response to Polymerase (POL) inhibitors (novobiocin, ART-558, RP6685) in combination with a variety of drugs and investigational agents in selected tumor cell lines
# The POL inhibitors (novobiocin, ART-558, and RP6685) were evaluated both individually and in combination with standard of care and investigational anticancer small molecules within a complex spheroid model of solid tumors. . Complex spheroids include a stromal component modeled by human endothelial cells (HUVEC) and fibroblasts modeled by human mesenchymal stem cells (MSCs). The concentration ranges selected for each drug and investigational agent were based upon clinically achievable concentrations if the clinical Cmax of the agent was known.
# Compounds. The drugs and investigational agents: novobiocin (NSC847541), ART-558 (NSC835418), RP-6685 (NSC848927), peposertib (NSC802822), ceralasertib (NSC780249), elimusertib (NSC800525), camonsertib (NSC841442), AZD-1390 (NSC803789), olaparib (NSC753686), talazoparib (NSC767125), rucaparib (NSC756644), sotorasib (NSC818433), MRTX-1133 (NSC836407), SN-38 (NSC673596), topotecan (NSC609699), epotoside (NSC141540), doxorubicin (NSC123127), gemcitabine (NSC613327), 5-fluorouracil (NSC19893), paclitaxel (NSC125973), vemurafenib (NSC761431), MSA-2 (NSC828583), SN-011 (NSC837082), adavosertib (NSC754352), prexasertib (NSC758257), carboplatin (NSC241240) and oxaliplatin (NSC266046), were obtained from the National Cancer Institute (NCI) Developmental Therapeutics Program Chemical Repository (21). The FDA-approved anticancer drug set is available from the Developmental Therapeutics Program at https://dtp.cancer.gov/organization/dscb/obtaining/. […] The stock solutions were prepared in dimethyl sulfoxide (DMSO, Sigma-Aldrich, St. Louis, MO, cat. D2650), except for the platinum compounds which were prepared in saline (Quality Biological, Gaithersburg, MD, cat. 114-055-101), at 800-fold the tested concentration and stored at -70 degrees C prior to their use. All drugs and investigational agents were tested over a range starting from a high concentration at or near the clinical Cmax and decreasing in half-log increments. If the clinical Cmax for an agent had not been determined, the highest concentration tested was 10 microM, except for SN-38, which was tested at a high concentration of 1 microM.
# Cell Culture. All cells were maintained in an incubator at 37 degrees C and 5% CO2 with 95% humidity. The PDC lines were cultured according to standard operating procedures established by the NCI PDMR (https://pdmr.cancer.gov). Table 3 of the manuscript, lists the cell lines along with the number of the three cell types plated to form the mct-spheroids and media for tumor cell growth. After thawing, all PDC lines, except 997537-175-T-J1-PDC and 415267-285-R-J2-PDC, were cultured in Matrigel-coated flasks prepared with a working solution of 1X Ham's F-12 nutrient mix, without supplementation (Thermo Fisher Scientific, cat. 11765054), 100 U/mL penicillin-streptomycin (Thermo Fisher Scientific, cat. 15140122), and 2.5% Matrigel (Corning Inc., Corning, NY, cat. 354248) for the first three passages. The two PDC lines 997537-175-T-J1-PDC and 415267-285-R-J2-PDC were cultured on uncoated flasks. The 857933-349-R-J2-PDC line was cultured in 6C/Colon 1B media containing advanced DMEM/F-12 (Thermo Fisher Scientific, cat. 12634028), 10 mM HEPES (Thermo Fisher Scientific, cat. 15630080), 1X GlutaMAX supplement (Thermo Fisher Scientific, cat. 35050061), 0.1 mg/mL primocin (InvivoGen, San Diego, CA, cat. ant-pm-2), 10% defined fetal bovine serum, heat inactivated (HyClone Laboratories Inc., Logan, UT, cat. SH30070.03HI), 50% L-WRN conditioned media (ATCC, cat. CRL-3276), 1.25 mM N-Acetyl-L-cysteine (Sigma-Aldrich, cat. A9165), 10 mM nicotinamide (Sigma-Aldrich, cat. N0636), 1X B-27 supplement (Thermo Fisher Scientific, cat. 17504044), 1X N-2 supplement (Thermo Fisher Scientific, cat. […]
# 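Note: spheroids exposed to compounds for seven days before readout.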
SMILES,"viability, T/C (compound 0.0316 µM)","viability, T/C (compound 0.1 µM)","viability, T/C (compound 0.316 µM)","viability, T/C (compound 1 µM)","viability, T/C (compound 3.16 µM)","viability, T/C (compound 10 µM)",IC50
CC1COCCN1c1cc(C2(S(C)(=N)=O)CC2)nc(-c2ccnc3[nH]ccc23)n1 (centres undefined),87.6% and 102% and 103%,88.4% and 105% and 117%,101% (2×) and 81.7%,77.9% and 69% and 76.1%,59.6% and 68.9% and 62.7%,33.2% and 55.2% and 42.2%,4650 nM and > 10000 nM and 6260 nM
CC1COCCN1c1cc(-c2ccnn2C)c2ccnc(-c3ccn[nH]3)c2n1 (centres undefined),70% and 80.3% and 83.9%,59.9% and 64.2% and 58.6%,40.7% and 40% and 54.9%,41.7% and 35.7% and 48.2%,41.2% and 43.7% and 44.5%,44.9% and 44.1% and 48%,190 nM and 202 nM and 558 nM
